Test results: US20250003877A1, “Silyl Bridged Dyes” (priority 2021, published 2025)
Like-named read-outs stand apart in the source and are kept apart here.

Experiments:
[1] = molecular target: T1, SNAP-tag (pSNAPf-H2B) in HeLa cells (Homo sapiens, UniProt P16455, A127T/A154D/C150Q/C62A/E30R/G131K/G132T/G153L/K125A/K32I/L33F/M134L/N157G/Q115S/Q116H/R128A/R135S/S151G/S152D/S159E); test: Live cell imaging of SNAP-tag-expressing cells with Si-bridge dyes; type: cell-based; details: 3 μM dye, 30 min, 37° C., washed, HeLa transfected with pSNAPf-H2B
T1 construct: host or cells: HeLa cells, transient transfection with Lipofectamine 2000
T1 sequence (P16455 1-182 E30R/K32I/L33F/C62A/Q115S/Q116H/K125A/A127T/R128A/G131K/G132T/M134L/R135S/C150Q/S151G/S152D/G153L/A154D/N157G/S159E limits assumed): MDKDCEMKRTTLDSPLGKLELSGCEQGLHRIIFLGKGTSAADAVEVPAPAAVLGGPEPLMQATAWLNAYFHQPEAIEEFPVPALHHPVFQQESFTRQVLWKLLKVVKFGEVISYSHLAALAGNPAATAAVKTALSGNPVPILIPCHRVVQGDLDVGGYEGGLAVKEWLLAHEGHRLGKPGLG
Procedure: HeLa cells were seeded in 35 mm glass bottom dishes (Cellvis, catalog no. D35-28-O-N), and transfected with […] control plasmid (Addgene #101124). Transient transfections were performed using Lipofectamine 2000 (Invitrogen, catalog no. 1168019) following the manufacturer's instructions. HeLa cell labeling and confocal imaging were performed 24 hr after transfection. Labeling with SNAP-Cell® 647 SiR (New England Biolabs, catalog no. […]) and new dyes 065 and 066 containing benzylguanine SNAP-tag ligands were performed following the manufacturer's instructions. SNAP-tag is another popular system for labeling fusion proteins. SNAP-tag is more promiscuous towards its substrates than HaloTag, and thus it was anticipated that the relative fluorogenic behavior for each Si-bridge dye isomer would differ from the stark facial selectivity results seen above with Hoechst probes and HaloTag. Briefly, cells were incubated with 3 μM dye in cell culture medium for 30 min at 37° C. The cells were then washed three times with tissue culture medium and incubated in fresh medium for 30 minutes. The medium was replaced one more time to remove unreacted […] before imaging. […] Dyes fluorescing in the Cy5 channel were excited with the HeNe (633 nm) laser at a 15% intensity and detected through a 640-615 band pass filter and […] pinhole. […]

[2] = type: physicochemical
Text: Strain-promoted lowering of the Si σ* energy in cyclic silanes is another approach to red-shift emission. Treatment of 1-1 with cyclohexyl dichlorosilane yielded the expected Si-rhodamine dye (Scheme 1A). However, the reactions with the corresponding five and four-membered ring analogs yielded many side products. The cyclopentyl analog 028 was obtained in good yield through an alternate synthetic pathway (Scheme 4), but the four-membered ring analog could not be isolated by either route. The silacyclopentyl analog is red-shifted compared to 001 and compound 014, consistent with a strain-induced LUMO-lowering effect (Table 3).
Scheme 10. Instability of silacyclopentyl dye 028 in solution. Proposed ring-opened product in methanol (the solvent used for HRMS analysis).

[3] = test system: hairpin DNA oligonucleotide (hpDNA); test: Photophysical properties after 2 h treatment with hairpin DNA (hpDNA); type: physicochemical; details: for Brightness (ε × ϕ) / ε (M^−1 cm^−1) / λem (nm) / λex (nm) / ϕ: +30 μM hpDNA, 2 h; for brightness: in the presence of 30 μM hpDNA
Procedure: Absorption and fluorescence spectra were measured on a Horiba Duetta fluorescence and absorbance spectrometer in quartz cuvettes (Starna Cells, catalog #3-Q-10). Extinction coefficients were calculated from plots of absorption versus concentration. Quantum yields were measured on a Hamamatsu Quantaurus QY C-11347-11 absolute quantum yield integrating sphere spectrometer at absorption values of <0.1 in side-arm quartz cuvettes (Hamamatsu cat #A10095-02). All measurements were performed in PBS (9.0 g/l NaCl, 0.795 g/l Na2HPO4, 0.144 g/l KH2PO4, pH 7.4, Corning cat #21-040-CV), ethanol, or 0.1% TFA/ethanol and prepared from stock solutions of dyes in DMSO, with final DMSO <1%. […] Selected KLZ values were determined in 1:1 v/v dioxane:water as previously described.
Spirolactonizable Si-rhodamines are particularly valuable for live cell imaging. They typically exist in a nonfluorescent, neutral cell-permeable form that can convert to a highly fluorescent form when bound to particular targets, such as DNA or the protein HaloTag®. This fluorogenic response occurs when the nonfluorescent spirolactone ring opens, generating a zwitterionic dye (Scheme 12). To date, all examples of fluorogenic Si-rhodamine dyes have been modified with targeting groups directly on the pendant phenyl ring that forms the spirolactone. It is not obvious whether this same fluorogenic behavior would also occur with dyes that are modified with targeting groups on the more distal silyl group. SiR-DNA (Spirochrome) is a commercially-available Si-rhodamine dye with the DNA-targeting ligand Hoechst 33258 attached to the pendant phenyl ring (Schemes 13A-C), allowing specific labeling of the nucleus in live cells. Therefore, two Hoechst 33258-modified Si-Bridge isomers were synthesized via direct reaction of the phenol of Hoechst 33258 with the isomeric Si-iodopropyl dyes compounds 047 and 048 (Scheme 6), and then assessed their ability to label the nucleus in live HeLa cells compared to SiR-DNA (FIGS. 2A-2C). […] To gain more insight into the molecular basis for this difference, the photophysical properties of compounds 061 and 062 were evaluated in vitro in the presence and absence of a hairpin DNA oligonucleotide (hpDNA) (Table 4). Like SiR-DNA, these dyes are quenched and virtually nonfluorescent in PBS, with quantum yields <0.02 and brightness of <130 M^−1 cm^−1.

[4] = test system: nucleus in live HeLa cells; test: No-wash live cell imaging of the nucleus with a Si-bridge dye; type: cell-based; details: confocal, Cy5 channel
Procedure: HeLa cells were cultured in Dulbecco's modified Eagle medium (DMEM, from GIBCO, catalog no. 11995065) supplemented with 10% fetal bovine serum (FBS) (GIBCO, catalog no. 10437028) and 1% penicillin-streptomycin (Sigma) at 37° C. in a 5% CO2 incubator. For imaging, cells were seeded in 35 mm glass bottom dishes (Cellvis, catalog no. D35-28-O—N). […] Dyes fluorescing in the Cy5 channel were excited with the HeNe (633 nm) laser at a 15% intensity and detected through a 640-615 band pass filter, and EGFP was excited with the Argon (488 nm) laser. Image analysis was performed using Leica LAS X SP8 software and ImageJ software.

Row | Structure (SMILES) | labeling of SNAP-tag [1] | Brightness (ε × ϕ) [3] | ε (M^−1 cm^−1) [3] | λem (nm) [3] [nm] | λex (nm) [3] [nm] | ϕ [3] | brightness [3] | Brightness (ε × ϕ) (0.1% SDS/PBS, 2 h incubation) | ε (M^−1 cm^−1) (0.1% SDS/PBS, 2 h incubation) | λem (nm) (0.1% SDS/PBS, 2 h incubation) | λex (nm) (0.1% SDS/PBS, 2 h incubation) | ϕ (0.1% SDS/PBS, 2 h incubation) | Brightness (ε × ϕ) (Hoechst probe in PBS) | ε (M^−1 cm^−1) (Hoechst probe in PBS) | λex (nm) (Hoechst probe in PBS) | labeling of the nucleus in live HeLa cells [4] | also measured
1 | CN(C)c1ccc2c(c1)[Si@](C)(CCCSCC(=O)NCc1ccc(COc3nc(N)nc4[nH]cnc34)cc1)c1cc(N(C)C)ccc1[C@@]21OC(=O)c2ccccc21 [Compound 066, N-(4-(((2-Amino-9H-purin-6-yl)oxy)methyl)benzyl)-2-((3-((5r,10r)-3,7-bis(dimethylamino)-5-methyl-3′-oxo-3′H,5H-spiro[dibenzo[b,e]siline-10,1′-isobenzofuran]-5-yl)propyl)thio)acetamide] | labeled SNAP-tag |  |  |  |  |  |  |  |  |  |  |  |  |  |  |  | 
2 | Cc1ccccc1C1=C2C=CC(=[N+](C)C)C=C2[Si]2(CCCC2)c2cc(N(C)C)ccc21 [Compound 028, N-(7-(Dimethylamino)-10-(o-tolyl)-3H-spiro[dibenzo[b,e]siline-5,1′-silolan]-3-ylidene)-N-methylmethanaminium] |  |  |  |  |  |  |  |  |  |  |  |  |  |  |  |  | Brightness (ϕ × ε) (PBS): 54,826; Em (nm) (PBS): 671 nm; Ex (nm) (PBS): 653 nm; ε (M^−1 cm^−1) (PBS): 158,000 M^−1 cm^−1; ϕ (quantum yield) (PBS, pH 7.4): 0.35; chemical stability in solution [2]: chemically unstable in solution
3 | CN(C)c1ccc2c(c1)[Si@](C)(CCCSCC(=O)NCc1ccc(COc3nc(N)nc4[nH]cnc34)cc1)c1cc(N(C)C)ccc1[C@]21OC(=O)c2ccccc21 [Compound 065, N-(4-(((2-Amino-9H-purin-6-yl)oxy)methyl)benzyl)-2-((3-((5s,10s)-3,7-bis(dimethylamino)-5-methyl-3′-oxo-3′H,5H-spiro[dibenzo[b,e]siline-10,1′-isobenzofuran]-5-yl)propyl)thio)acetamide] | labeled SNAP-tag |  |  |  |  |  |  |  |  |  |  |  |  |  |  |  | 
4 | CN1CCN(c2ccc3[nH]c(-c4ccc5[nH]c(-c6ccc(OCCC[Si@]7(C)c8cc(N(C)C)ccc8[C@@]8(OC(=O)c9ccccc98)c8ccc(N(C)C)cc87)cc6)nc5c4)nc3c2)CC1 [Compound 062, (5r,10r)-3,7-Bis(dimethylamino)-5-methyl-5-(3-(4-(5-(4-methylpiperazin-1-yl)-1H,1′H-[2,5′-bibenzo[d]imidazol]-2′-yl)phenoxy)propyl)-3′H,5H-spiro[dibenzo[b,e]siline-10,1′-isobenzofuran]-3′-one] |  | 10,400 | 26,000 M^−1cm^−1 | 670 | 653 | 0.40 | 10 400 M^−1 cm^−1 | 64,770 | 127,000 M^−1cm^−1 | 670 | 649 | 0.51 | 90 | 10,000 M^−1cm^−1 | 663 | highly fluorogenic, labeling only the nucleus in live cells | extinction coefficient ([3]; in the presence of 30 mM hpDNA): 26 000 M^−1 cm^−1; quantum yield ([3]; in the presence of 30 mM hpDNA): 0.40
5 | CN1CCN(c2ccc3[nH]c(-c4ccc5[nH]c(-c6ccc(OCCC[Si@]7(C)c8cc(N(C)C)ccc8[C@]8(OC(=O)c9ccccc98)c8ccc(N(C)C)cc87)cc6)nc5c4)nc3c2)CC1 [Compound 061, (5s,10s)-3,7-Bis(dimethylamino)-5-methyl-5-(3-(4-(5-(4-methylpiperazin-1-yl)-1H,1′H-[2,5′-bibenzo[d]imidazol]-2′-yl)phenoxy)propyl)-3′H,5H-spiro[dibenzo[b,e]siline-10,1′-isobenzofuran]-3′-one] |  | 550 | 5,500 M^−1cm^−1 | 672 | 658 | 0.10 | 550 M⁻¹ cm⁻¹ | 10,965 | 25,500 M^−1cm^−1 | 668 | 650 | 0.43 | 130 | 6,500 M^−1cm^−1 | 660 | no labeling of the nucleus | ϕ (Hoechst probe in PBS): 0.02
